Results taken from paper PMC7377239, “Cardiovascular Effects of Polychlorinated Biphenyls and Their Major Metabolites” (Environmental Health Perspectives, 2020).

System: iPSC-CMs, iPSC-ECs and HUVECs phenotypes
Test: ToxPi 2.0 integration of POD values and physicochemical descriptors
Design: species or system human
Conditions: ToxPi-scaled (0-1) score; for huvec.cyto.24hr / huvec.mito.24hr / huvec.mitoint.24hr / huvec.nma.24hr / huvec.tc.24hr / huvec.mtl.18hr / huvec.tlps.18hr / huvec.tta.18hr / huvec.ttl.18hr: HUVECs; for huvec.mtl.18hr / huvec.tlps.18hr / huvec.tta.18hr / huvec.ttl.18hr / endo.mtl.18hr / endo.tlps.18hr / endo.tta.18hr / endo.ttl.18hr: tube formation; for cm.amp.avg.90min / cm.amp.cv.90min / cm.bpm.90min / cm.cam.90min / cm.decay.rise.90min / cm.mii.90min / cm.mito.90min / cm.spacing.cv.90min / cm.tc.90min / cm.amp.avg.24hrs / cm.amp.cv.24hrs / cm.bpm.24hrs / cm.cam.24hrs / cm.decay.rise.24hrs / cm.mii.24hrs / cm.mito.24hrs / cm.spacing.cv.24hrs / cm.tc.24hrs: iPSC cardiomyocytes; for endo.cyto.24hr / endo.mito.24hr / endo.mitoint.24hr / endo.nma.24hr / endo.tc.24hr / endo.mtl.18hr / endo.tlps.18hr / endo.tta.18hr / endo.ttl.18hr: iPSC endothelial cells
Method in brief: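 Phenotypic readouts in iPSC-cardiomyocytes, iPSC-endothelial cells and HUVECs were normalised to 0.5% DMSO vehicle and fitted to a four-parameter logistic model. POD set at one SD cutoff of vehicle means, with 100 μM assigned when no response. PODs and physicochemical descriptors combined in ToxPi 2.0 scores.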

| SMILES | huvec.cyto.24hr | huvec.mito.24hr | huvec.mitoint.24hr | huvec.nma.24hr | huvec.tc.24hr | huvec.mtl.18hr | huvec.tlps.18hr | huvec.tta.18hr | huvec.ttl.18hr | cm.amp.avg.90min | cm.amp.cv.90min | cm.bpm.90min | cm.cam.90min | cm.decay.rise.90min | cm.mii.90min | cm.mito.90min | cm.spacing.cv.90min | cm.tc.90min | cm.amp.avg.24hrs | cm.amp.cv.24hrs | also measured |
| --- | --- | --- | --- | --- | --- | --- | --- | --- | --- | --- | --- | --- | --- | --- | --- | --- | --- | --- | --- | --- | --- |
| Oc1ccccc1-c1ccc(Cl)cc1 [2'-OH-PCB 3] | 0.3062 | 0.3804 | 0.2116 | 0.5273 | 0.3062 | 0 | 0.9781 | 0 | 0 | 1 | 1 | 0.6048 | 0.4595 | 0.9737 | 0.8925 | 0.3599 | 0.3323 | 0.4365 | 0.2407 | 0.05985 | cm.bpm.24hrs: 0.1658; cm.cam.24hrs: 0.1217; cm.decay.rise.24hrs: 0.6737; cm.mii.24hrs: 0.7202; cm.mito.24hrs: 0.2606; cm.spacing.cv.24hrs: 0.1842; cm.tc.24hrs: 0.2359; endo.cyto.24hr: 0.1423; endo.mito.24hr: 0.1423; endo.mitoint.24hr: 0; endo.nma.24hr: 0.7069; endo.tc.24hr: 0.06754; endo.mtl.18hr: 0.2097; endo.tlps.18hr: 0.3809; endo.tta.18hr: 0.1099; endo.ttl.18hr: 0.1352 |
| Oc1ccc(-c2ccc(Cl)cc2)cc1 [4'-OH-PCB 3] | 0.275 | 0.3852 | 0.4333 | 0.3408 | 0.275 | 0.9876 | 1 | 0.5814 | 0.4466 | 0.5917 | 0.3333 | 0.8225 | 0.8629 | 0.5699 | 0.6837 | 0.8821 | 0.08302 | 0.896 | 1 | 0.8417 | cm.bpm.24hrs: 0.3262; cm.cam.24hrs: 0.1519; cm.decay.rise.24hrs: 0.2382; cm.mii.24hrs: 0.4953; cm.mito.24hrs: 0.213; cm.spacing.cv.24hrs: 0.1936; cm.tc.24hrs: 0.2201; endo.cyto.24hr: 0.1551; endo.mito.24hr: 0.1551; endo.mitoint.24hr: 0; endo.nma.24hr: 0; endo.tc.24hr: 0.1152; endo.mtl.18hr: 0.4612; endo.tlps.18hr: 1; endo.tta.18hr: 0.4055; endo.ttl.18hr: 0.4146 |
| Clc1ccc(Cl)c(-c2c(Cl)ccc(Cl)c2Cl)c1Cl [(+)-PCB 136, 2,2′,3,3′,6,6′-hexachlorobiphenyl] | 0.7118 | 0.6728 | 1 | 0.5111 | 0.7118 | 0.4492 | 0 | 0 | 0 | 0.6409 | 0.2396 | 0.7987 | 0.4781 | 0.1898 | 0.5827 | 0.4679 | 0.07704 | 0.4097 | 0.5612 | 0.5448 | cm.bpm.24hrs: 0.7213; cm.cam.24hrs: 0.5816; cm.decay.rise.24hrs: 0.9212; cm.mii.24hrs: 0.1793; cm.mito.24hrs: 0.8542; cm.spacing.cv.24hrs: 0.7501; cm.tc.24hrs: 1; endo.cyto.24hr: 0.1692; endo.mito.24hr: 0.1692; endo.mitoint.24hr: 0.294; endo.nma.24hr: 0; endo.tc.24hr: 0.1732; endo.mtl.18hr: 0.04754; endo.tlps.18hr: 0.448; endo.tta.18hr: 0.8586; endo.ttl.18hr: 0.8499 |
| Oc1ccc(-c2cccc(Cl)c2)cc1Cl [4-OH-PCB 11] | 0.4438 | 0.5256 | 0.5773 | 0.5884 | 0.4438 | 0.5918 | 0.1971 | 0 | 0.4794 | 0.7012 | 0.353 | 0.1603 | 0.5301 | 0.5246 | 0.417 | 0.3722 | 0.09289 | 0.417 | 0 | 0.6637 | cm.bpm.24hrs: 0.3605; cm.cam.24hrs: 0.33; cm.decay.rise.24hrs: 0.2928; cm.mii.24hrs: 0.2219; cm.mito.24hrs: 0.5458; cm.spacing.cv.24hrs: 0.4379; cm.tc.24hrs: 0.5639; endo.cyto.24hr: 0.145; endo.mito.24hr: 0.145; endo.mitoint.24hr: 0.2813; endo.nma.24hr: 0.4122; endo.tc.24hr: 0.08397; endo.mtl.18hr: 0.181; endo.tlps.18hr: 0.1031; endo.tta.18hr: 0.1681; endo.ttl.18hr: 0.1683 |
| COc1ccc(-c2cccc(Cl)c2)cc1Cl [4-OMe-PCB 11, 4-methoxy-3,3′-dichlorobiphenyl] | 0.2668 | 0.3305 | 0.3626 | 0.3507 | 0.2668 | 0.5304 | 0.2567 | 0 | 0.6633 | 0.6528 | 0.2486 | 0.4773 | 0.4476 | 0.5303 | 0.1771 | 0.5027 | 0.1369 | 0.5138 | 0.152 | 0.06047 | cm.bpm.24hrs: 0.441; cm.cam.24hrs: 0.1329; cm.decay.rise.24hrs: 0.2452; cm.mii.24hrs: 0.5873; cm.mito.24hrs: 0.2518; cm.spacing.cv.24hrs: 0.1755; cm.tc.24hrs: 0.2526; endo.cyto.24hr: 0; endo.mito.24hr: 0; endo.mitoint.24hr: 0; endo.nma.24hr: 0; endo.tc.24hr: 0; endo.mtl.18hr: 0; endo.tlps.18hr: 0.2016; endo.tta.18hr: 1; endo.ttl.18hr: 1 |
